Results as given in the supplement of paper PMC10307832.

Tests used:
Assay in all cases: relative viability (nuclei count vs DMSO), 5 days (fraction); higher = more cells survive
[1] = compound: CC1=CC(=CC=C1)NC2=NC(=CS2)C3=CC=NC=C3 + Nc1ncn([C@H]2C[C@H](O)[C@@H](CO)O2)c(=O)n1 [Decitabine] (partner 2 µM)
In short: (§1)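 A single step with final 0.05% Triton X-100, 1% formaldehyde and 1 ug/ml Hoechst fixed the cells and stained nuclei 5 days after treatment. Lung cancer cell lines in 1536-well plates had been treated by pin tool the day after seeding with one drug alone or a fixed anchor-drug dose plus five library-drug doses (not always all listed) in √10 steps, and nuclei were counted on 4× images. Relative viability is the ratio of nuclei in treated wells to nuclei in vehicle wells, taken as the median of duplicate plates.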

Masitinib + AZD7762 = compound: Cc1ccc(NC(=O)c2ccc(CN3CCN(C)CC3)cc2)cc1Nc1nc(-c2cccnc2)cs1 [Masitinib] + NC(=O)Nc1cc(-c2cccc(F)c2)sc1C(=O)N[C@H]1CCCNC1 [AZD7762] (partner 0.2 µM)
In short: as §1

Masitinib + Trametinib = compound: Cc1ccc(NC(=O)c2ccc(CN3CCN(C)CC3)cc2)cc1Nc1nc(-c2cccnc2)cs1 [Masitinib] + CC(=O)Nc1cccc(-n2c(=O)n(C3CC3)c(=O)c3c(Nc4ccc(I)cc4F)n(C)c(=O)c(C)c32)c1 [Trametinib] (partner 0.02 µM)
In short: as §1

[2] = compound: CC1=CC(=CC=C1)NC2=NC(=CS2)C3=CC=NC=C3 + CS(=O)(=O)N1CCN(Cc2cc3nc(-c4cccc5[nH]ncc45)nc(N4CCOCC4)c3s2)CC1 [Pictilisib] (partner 1 µM)
In short: as §1

Cell Line	relative viability ([1]; first compound 0.08 µM)	relative viability ([1]; first compound 0.253 µM)	relative viability ([1]; first compound 0.8 µM)	relative viability ([1]; first compound 2.53 µM)	relative viability ([1]; first compound 8 µM)	relative viability (Masitinib + AZD7762; first compound 0.01 µM)	relative viability (Masitinib + AZD7762; first compound 0.03162 µM)	relative viability (Masitinib + AZD7762; first compound 0.1 µM)	relative viability (Masitinib + AZD7762; first compound 0.3162 µM)	relative viability (Masitinib + AZD7762; first compound 1 µM)	relative viability (Masitinib + Trametinib; first compound 0.01 µM)	relative viability (Masitinib + Trametinib; first compound 0.03162 µM)	relative viability (Masitinib + Trametinib; first compound 0.1 µM)	relative viability (Masitinib + Trametinib; first compound 0.3162 µM)	relative viability (Masitinib + Trametinib; first compound 1 µM)	relative viability ([2]; first compound 0.08 µM)	relative viability ([2]; first compound 0.253 µM)	relative viability ([2]; first compound 0.8 µM)	relative viability ([2]; first compound 2.53 µM)	relative viability ([2]; first compound 8 µM)
HCC-827	0.298	0.317	0.352	0.287	0.328	0.224	0.198	0.192	0.165	0.213	0.508	0.532	0.539	0.603	0.547	0.72	0.875	1.12	0.895	0.812
HOP-62	0.219	0.218	0.261	0.244	0.247	0.458	0.631	0.837	0.679	0.655	0.394	0.361	0.349	0.365	0.375	0.581	0.758	1.09	0.668	0.903
IA-LM																0.24	0.337	0.415	0.267	0.427
LC-2-ad	0.754	0.776	0.793	0.799	0.69	0.687	0.795	0.707	0.71	0.818	0.92	0.917	0.911	0.941	0.93	0.365	0.366	0.478	0.369	0.436
LCLC-97TM1	0.204	0.204	0.233	0.254	0.245	0.235	0.288	0.229	0.191	0.229	0.184	0.19	0.19	0.231	0.186			0.282	0.207	0.198
LCLC-103H	0.72	0.664	0.672	0.665	0.573		0.885	0.566	0.831	0.791		0.624	0.693	0.713	0.669	0.402	0.54	0.551	0.572	0.546
NCI-H520	0.55	0.468	0.541	0.586	0.61						0.752	0.634	0.873	0.76	0.598	0.281	0.346	0.301	0.278	0.299
NCI-H522	0.702	0.63	0.708	0.801	0.677	0.892	0.874	0.894	0.643	0.795	0.742	0.784	0.787	0.73	0.721					
NCI-H661	0.514	0.585	0.556	0.505	0.533						0.493	0.486	0.563	0.591	0.564	0.447	0.47	0.407	0.397	0.489
NCI-H1299																0.779	0.839	0.779	0.88	0.899
NCI-H1563																0.675	0.616	0.712	0.617	0.592
NCI-H1648	0.345	0.42	0.496	0.356	0.376	0.567	0.678	0.711		0.679	0.523	0.436	0.414		0.442					
NCI-H1650	0.384	0.38	0.478	0.408	0.378						0.48	0.54	0.479	0.493	0.527	0.536	0.517	0.621	0.419	0.208
NCI-H1703						0.113	0.158	0.102	0.121	0.106						0.229	0.243	0.238	0.282	0.262
NCI-H2009	0.342	0.425	0.385	0.411	0.376						0.29	0.239	0.296	0.26	0.268	0.724	0.837	0.692	0.856	0.957
NCI-H2023	0.239	0.223	0.245	0.203	0.216						0.509	0.448	0.531	0.518	0.549	0.161	0.177	0.215	0.175	0.18
NCI-H2228											0.385	0.381	0.405	0.482	0.529	0.413	0.431	0.281	0.453	0.359
NCI-H2342	0.691	0.773	0.657	0.77	0.761	0.51	0.402	0.427	0.508	0.456	0.89	0.7	0.844	0.797	0.875					
SK-LU-1	0.624	0.625	0.563	0.617	0.726						0.513	0.406	0.534	0.555	0.464	0.527	0.575		0.586	0.626
SK-MES-1	0.37	0.361	0.367	0.373	0.378						0.519	0.528	0.561	0.485	0.514	0.275	0.276	0.341	0.358	0.346
SW 900	0.443	0.381	0.353	0.389	0.441	0.664	0.548	0.568	0.574	0.576	0.719	0.736	0.787	0.821	0.843					
SW 1573	0.48	0.409	0.441	0.454	0.485						0.666	0.603	0.551	0.542	0.581	0.473	0.454	0.521	0.57	0.488
